In patent publication US20060094017A1, “Immunogens for hiv vaccine” (priority 2003, published 2006):

Columns and labels:
[1] = test system: Mab 2G12; experiment: BIACore (SPR) binding of Mab 2G12 to biotinylated synthetic mimotope peptides on streptavidin chip; parameters: species or system human; conditions: synthetic biotinylated mimotope peptide (500 μg/ml) on streptavidin chip; 100 μl Mab 2G12 at 0.25 μg/μl, 5 μl/min
Procedure: Surface plasmon resonance was also used to confirm the binding of synthetic mimotope peptides identified from the panning procedure described in Example 2 to Mab 2G12. In this assay, a solution of biotinylated mimotope peptide is injected into a flowcell containing a BIACore chip coated with streptavidin. The biotin-streptavidin interaction immobilizes the synthetic mimotope peptide on the chip surface. Mab 2G12 is then injected into the flowcell to determine if the antibody recognizes and is captured by the bound mimotope. Specifically, the streptavidin BIACore chip was warmed to room temperature for 30 minutes. The chip was then docked and primed 2× with HBS-EP (0.01M HEPES, pH 7.4, 0.15M NaCl, 3 mM EDTA, 0.005% Surfactant P20) and conditioned for three cycles with 1M NaCl/50 mM NaOH. Each synthesized, biotinylated mimotope peptide was diluted 1:2 in HBS (0.01M HEPES, pH 7.4) to a final concentration of 500 μg/ml. Seventy-five microliters of each mimotope peptide was then injected into the flowcell at a flow rate of 5 μl/min. Mab 2G12 was resuspended in sterile water to a concentration of 0.25 μg/μl, and 100 μl of the antibody was injected into the flowcell containing the captured synthetic peptide at a flow rate of 5 μl/min. The captured Mab2G12 was measure in RUs. Of the mimotopes tested by this procedure, the synthetic peptide represented by SEQ ID NO:3, WKIPDHGIVVFSWFP, bound Mab 2G12 the tightest at 1193 RUs. In comparison, RSGHKVWVVSTKESS (SEQ ID NO:1) bound at 117 RUs, VLRLMECHFQCVPSL (SEQ ID NO:4) bound at 133 RUs, and TLKSLPYRAVLGAQA (SEQ ID NO:5) bound at 37 RUs. […] Thus, the mimotope represented by SEQ ID NO:2 binds to Mab 2G12 more efficiently as a multivalent structure (e.g., when within the pIII on the tip of the filamentous phage particle).

[2] = test system: Mab 2G12; experiment: BIACore (SPR) binding of Mab 2G12 to mimotopes displayed on phage captured by anti-M13 antibody; parameters: species or system human; conditions: round three phage-displayed mimotope (pIII) captured via anti-M13 on RAMFc CM5 chip; 25 μl Mab 2G12 at 100 μg/ml
Procedure: BIACore confirmation of mimotope binding to Mab 2G12 was determined for four of the identified peptide sequences disclosed in the present application. For the first assay, a batch of individually selected phage was prepared from the transduced E. coli cells described in Example 2. The phage were concentrated by PEG precipitation to be used in the assay. Initially, a murine anti-phage pVIII monoclonal antibody (anti-M13) is captured by a BIACore CM5 chip that is coated with a standard rabbit anti-mouse (Fc) antibody (RAMFc). The anti-M13 antibody captures the chimeric phage selected from the panning procedure described in Example 2. Mab 2G12 is then flowed over the chip in order to describe and confirm binding of the antibody to the captured chimeric phage pIII.
Specifically, RAMFc was first immobilized on the gold surface of the BIACore CM5 chip (Uppsala, Sweden) containing dextran by amine coupling. Twenty-five microliters of anti-M13 antibody (Amersham Pharmacia Biotech, Piscataway, N.J.), at 1 mg/ml, was injected into the flowcell containing the chip at a flow rate of […] and captured by the immobilized RAMFc. The captured anti-M13 was measured in resonance units (RU). After completing the initial control tests of the flowcell, the chip was regenerated by injecting 10 μl of 20 mM HCL, 3 times, into the flowcell. To determine whether Mab 2G12 can detect the mimotopes isolated in the panning procedure described herein, 25 μl of anti-M13 at 1 mg/ml was first injected into the flowcell. Fifty microliters of the round three phage preparation of the mimotope sequence identified by SEQ ID NO:3, WKIPDHGIVVFSWFP, at >1×10^10 phage particles per ml, was injected into the flowcell. This was followed by 25 μl of Mab 2G12 at 100 μg/ml. The amount of Mab 2G12 captured on the chip was subsequently measured in RUs. This procedure was repeated for the following round three mimotopes: RSGHKVWVVSTKESS (SEQ ID NO:1), KCCFAESSRSGTGRY (SEQ ID NO:2) and VLRLMECHFQCVPSL (SEQ ID NO:4). […] Of the four mimotopes tested by this procedure, RSGHKVWVVSTKESS (SEQ ID NO:1) bound Mab 2G12 the tightest at 312 RUs. In comparison, KCCFAESSRSGTGRY (SEQ ID NO:2) bound at 120 RUs, WKIPDHGIVVFSWFP (SEQ ID NO:3) bound at 24 RUs, and VLRLMECHFQCVPSL (SEQ ID NO:4) bound at 17 RUs.

Sequence: TLKSLPYRAVLGAQA (Synthetic peptide mimotope) [SEQ ID NO:5]
- captured Mab 2G12 [1]: 37 RUs

Sequence: KCCFAESSRSGTGRY (Synthetic peptide mimotope) [SEQ ID NO:2]
- amount of Mab 2G12 captured on the chip [2]: 120 RUs
- captured Mab 2G12 [1]: no binding

Sequence: RSGHKVWVVSTKESS (Synthetic peptide mimotope) [SEQ ID NO:1]
- amount of Mab 2G12 captured on the chip [2]: 312 RUs
- captured Mab 2G12 [1]: 117 RUs

Sequence: VLRLMECHFQCVPSL (Synthetic peptide mimotope) [SEQ ID NO:4]
- amount of Mab 2G12 captured on the chip [2]: 17 RUs
- captured Mab 2G12 [1]: 133 RUs

Sequence: WKIPDHGIVVFSWFP (Synthetic peptide mimotope) [SEQ ID NO:3]
- amount of Mab 2G12 captured on the chip [2]: 24 RUs
- captured Mab 2G12 [1]: 1193 RUs
